Assay results: ChEMBL document CHEMBL1141002, “Alpha-mercaptoketone based histone deacetylase inhibitors” (Bioorg Med Chem Lett, 2008)
“And” between values parts separate entries of the source, which are not always exact repeats. Equal entries are not always repeated.

Tests used:
HCT-116 [1] = test: Cytotoxicity against human HCT116 cells; format: functional, cell-based
Histone deacetylase = test: Inhibition of histone deacetylase in human HeLa cells assessed as induction of histone H3 hyperacetylation; format: cell-based
HCT-116 [2] = test: Antitumor activity against human HCT116 cells xenografted in nude mouse at 50 mg/kg, po administered once a day for 14 days relative to control; format: functional

Row | Compound | EC50 (Histone deacetylase) | EC50 (HCT-116 [1]) | T/C (HCT-116 [2])
1 | CC(=O)SCC(=O)c1ccc(NS(=O)(=O)c2ccc3c(c2)CCO3)cc1 | 82 nM | 3200 nM | –
2 | CC(=O)SCC(=O)c1ccc(NS(=O)(=O)c2ccc(C(F)(F)F)cc2)cc1 | 2100 nM | – | –
3 | CC(=O)SCC(=O)c1ccc(NS(=O)(=O)c2ccc3c(c2)ncn3C)nc1 | 240 nM | 4900 nM | –
4 | CC(=O)SCC(=O)c1ccc(NS(=O)(=O)c2ccc3c(c2)OCO3)nc1 | 360 nM | 5500 nM | –
5 | CC(=O)SCC(=O)c1ccc(NS(=O)(=O)c2ccccc2)cc1 | 330 nM | 15400 nM | –
6 | CC(=O)SCC(=O)c1ccc(NS(=O)(=O)c2ccc(Cl)cc2)cc1 | 280 nM | 30800 nM | –
7 | CC(=O)SCC(=O)c1ccc(NS(=O)(=O)c2ccc(F)cc2)cc1 | 950 nM | – | –
8 | CC(=O)SCC(=O)c1ccc(C(=O)Nc2ccc(OC(F)(F)F)cc2)cc1 | 67100 nM | – | –
9 | CC(=O)SCC(=O)c1ccc(NS(=O)(=O)c2ccc3c(c2)OCO3)cc1 | 88 nM | 1400 nM | –
10 | CC(=O)SCC(=O)c1ccc(NS(=O)(=O)c2ccc(Cl)c(Cl)c2)cc1 | 420 nM | – | –
11 | CC(=O)SCC(=O)c1ccc(NS(=O)(=O)c2ccc3[nH]ccc3c2)cc1 | 59 nM | 1500 nM | –
12 | CC(=O)SCC(=O)c1ccc(NS(=O)(=O)c2cccc(OC(F)(F)F)c2)cc1 | 790 nM | – | –
13 | CC(=O)SCC(=O)c1ccc(NS(=O)(=O)c2ccc3c(c2)N(C(C)=O)CC3)cc1 | 91 nM | 4600 nM | –
14 | CC(=O)SCC(=O)c1ccc(NS(=O)(=O)c2ccc(C)cc2)cc1 | 100 nM | 6500 nM | –
15 | CC(=O)SCC(=O)c1ccc(NC(=O)Nc2ccc(OC(F)(F)F)cc2)cc1 | 11200 nM | – | –
16 | CC(=O)SCC(=O)c1ccc(NS(=O)(=O)c2ccccc2Cl)cc1 | 850 nM | – | –
17 | CC(=O)SCC(=O)c1ccc(NS(=O)(=O)c2ccc3c(c2)OCCN3C)cc1 | 100 nM | 2600 nM | –
18 | CC(=O)SCC(=O)c1ccc(NS(=O)(=O)c2ccc3c(c2)OCCO3)cc1 | 26 nM | 400 nM | 87%
19 | CC(=O)SCC(=O)c1ccc(NCc2ccc(OC(F)(F)F)cc2)cc1 | 1500 nM | – | –
20 | CC(=O)SCC(=O)c1ccc(NS(=O)(=O)c2ccccc2)nc1 | 150 nM | 5300 nM | –
21 | CC(=O)SCC(=O)c1ccc(NS(=O)(=O)c2ccc(OC(F)(F)F)cc2)cc1 | 200 nM | 8800 nM | –
22 | CC(=O)SCC(=O)c1ccc(N(C)S(=O)(=O)c2ccc(OC(F)(F)F)cc2)cc1 | 4300 nM | – | –
23 | COc1ccc(S(=O)(=O)Nc2ccc(C(=O)CSC(C)=O)cc2)cc1OC | 280 nM | 3200 nM | –
24 | CC(=O)SCC(=O)c1ccc(NS(=O)(=O)c2cccc(Cl)c2)cc1 | 150 nM | – | –
25 | CC(=O)SCC(=O)c1ccc(NS(=O)(=O)c2ccc3c(c2)NCC3)cc1 | 47 nM | 3300 nM | –

More lines, main results first:

Row | EC50 (Histone deacetylase) | Compound | EC50 (HCT-116 [1]) | T/C (HCT-116 [2])
26 | 95 nM | CC(=O)SCC(=O)c1ccc(NS(=O)(=O)c2ccc3c(c2)CCO3)nc1 | 6400 nM | –
27 | 460 nM | CC(=O)SCC(=O)c1ccc(NS(=O)(=O)c2cccc(F)c2)cc1 | – | –
28 | 1000 nM | CC(=O)SCC(=O)c1ccc(S(=O)(=O)Nc2ccc(OC(F)(F)F)cc2)cc1 | 16100 nM | –
29 | 50 nM | COc1ccc(S(=O)(=O)Nc2ccc(C(=O)CSC(C)=O)cc2)cc1 | 500 nM | –
30 | 42 nM | CC(=O)SCC(=O)c1ccc(NS(=O)(=O)c2ccc3ccccc3c2)nc1 | 4900 nM | –
31 | 170 nM | COc1cccc(S(=O)(=O)Nc2ccc(C(=O)CSC(C)=O)cc2)c1 | 2600 nM | –
32 | 79 nM and 38 nM | CC(=O)SCC(=O)c1ccc(NS(=O)(=O)c2ccc3c(c2)ncn3C)cc1 | 1800 nM | –
33 | 44 nM | CC(=O)SCC(=O)c1ccc(NS(=O)(=O)c2ccc3cc[nH]c3c2)cc1 | 600 nM | –
34 | 160 nM | CC(=O)SCC(=O)c1ccc(NS(=O)(=O)c2ccc3c(c2)CCN3)cc1 | 1100 nM | –
35 | 29 nM | CC(=O)SCC(=O)c1ccc(NS(=O)(=O)c2ccc3ccccc3c2)cc1 | 2600 nM | –
36 | 150 nM | CC(=O)SCC(=O)c1ccc(NS(=O)(=O)c2ccc3c(c2)OCCN3C)nc1 | 9600 nM | –
